The results in this text go back to patent publication US20230203059A1, “MACROCYCLIC JAK INHIBITOR AND USES THEREOF” (Biopolar Hongye (Guangdong) Pharmaceutical Co. Ltd., priority 2020, published 2023).

Molecules are shown by their SMILES. Some results are limits rather than exact numbers.

Holding throughout (type): biochemical
One test has as its target JAK2 (Homo sapiens, UniProt O60674). Nature of the test: JAK kinase activity, homogeneous time-resolved fluorescence (JAK2 reaction system). The following applies: ATP 2 μM, JAK2 protein 0.01 ng/μL. An outline of the steps: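 IC50 derived by Hill-equation fit of the 665/615 nm time-resolved fluorescence ratio after EDTA-containing detection mix with anti-phosphosubstrate antibody. Preceding 1 h reaction contained 2 μM ATP, 0.01 ng/μL JAK2, substrate, 50 mM Hepes pH 7.0, 5 mM MgCl2, 1 mM DTT.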

Another test has as its target JAK1 (Homo sapiens, UniProt P23458). Put plainly: JAK kinase activity, homogeneous time-resolved fluorescence (JAK1 reaction system). Conditions: ATP 2 μM, JAK1 protein 0.2 ng/μL; read-out: JAK 1 activity. An outline of the steps: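 Kinase activity read as the 665 nm/615 nm time-resolved fluorescence ratio (320 nm excitation) after EDTA-containing antibody and XL-615 addition. Reaction ran 1 h at pH 7.0 (Hepes, MgCl2, DTT) with 0.2 ng/μL JAK1 and ATP at 2 μM. IC50 derived by Hill-slope fit.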

Another test deals with T1, JAK3 (Homo sapiens, UniProt P52333).
T1 sequence (P52333 1-1124): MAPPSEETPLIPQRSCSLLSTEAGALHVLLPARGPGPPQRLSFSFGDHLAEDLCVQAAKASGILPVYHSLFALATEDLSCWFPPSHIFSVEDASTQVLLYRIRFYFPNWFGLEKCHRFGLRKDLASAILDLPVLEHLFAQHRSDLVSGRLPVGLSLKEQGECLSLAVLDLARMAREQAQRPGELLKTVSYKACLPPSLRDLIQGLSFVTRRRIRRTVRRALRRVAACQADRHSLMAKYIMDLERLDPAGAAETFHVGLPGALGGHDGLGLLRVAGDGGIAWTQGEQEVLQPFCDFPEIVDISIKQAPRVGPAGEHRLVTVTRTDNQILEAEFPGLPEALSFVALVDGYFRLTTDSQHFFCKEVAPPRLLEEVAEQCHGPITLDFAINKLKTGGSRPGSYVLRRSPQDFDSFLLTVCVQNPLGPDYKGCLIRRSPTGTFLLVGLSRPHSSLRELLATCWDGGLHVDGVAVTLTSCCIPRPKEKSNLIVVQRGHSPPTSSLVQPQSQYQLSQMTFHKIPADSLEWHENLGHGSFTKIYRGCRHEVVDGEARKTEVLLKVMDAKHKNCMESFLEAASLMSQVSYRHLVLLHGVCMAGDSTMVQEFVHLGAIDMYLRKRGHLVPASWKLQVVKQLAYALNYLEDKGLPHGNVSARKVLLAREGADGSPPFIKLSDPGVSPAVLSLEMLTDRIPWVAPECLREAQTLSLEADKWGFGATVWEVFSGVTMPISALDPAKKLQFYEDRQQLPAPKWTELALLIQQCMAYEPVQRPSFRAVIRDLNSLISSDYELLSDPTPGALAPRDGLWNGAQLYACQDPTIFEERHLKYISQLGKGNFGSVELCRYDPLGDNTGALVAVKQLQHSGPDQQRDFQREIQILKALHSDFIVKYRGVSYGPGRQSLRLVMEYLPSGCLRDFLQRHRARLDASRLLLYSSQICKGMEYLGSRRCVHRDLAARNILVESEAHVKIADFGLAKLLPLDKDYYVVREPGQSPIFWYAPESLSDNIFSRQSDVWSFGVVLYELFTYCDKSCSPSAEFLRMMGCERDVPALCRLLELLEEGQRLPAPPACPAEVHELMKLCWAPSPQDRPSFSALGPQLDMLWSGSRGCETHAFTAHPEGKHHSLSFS
Nature of the test: JAK kinase activity, homogeneous time-resolved fluorescence (JAK3 reaction system). The following applies: ATP 2 μM, JAK3 protein 0.04 ng/μL; read-out: JAK 3 activity.

A further test concerns the target TYK2 (Homo sapiens, UniProt P29597). Put plainly: JAK kinase activity, homogeneous time-resolved fluorescence (TYK2 reaction system). Conditions: ATP 2 μM, TYK2 protein 0.2 ng/μL; read-out: TYK 2 activity. An outline of the steps:
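Activity read as the 665 nm/615 nm ratio after adding EDTA-containing detection mix with anti-phospho-substrate antibody and XL-615. Beforehand, 0.2 ng/μL TYK2, 2 μM ATP, substrate and compound reacted 1 h in pH 7.0 Hepes buffer with MgCl2 and DTT. IC50 fitted with Hill-slope equation.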

Sequence of JAK2 (O60674 whole entry): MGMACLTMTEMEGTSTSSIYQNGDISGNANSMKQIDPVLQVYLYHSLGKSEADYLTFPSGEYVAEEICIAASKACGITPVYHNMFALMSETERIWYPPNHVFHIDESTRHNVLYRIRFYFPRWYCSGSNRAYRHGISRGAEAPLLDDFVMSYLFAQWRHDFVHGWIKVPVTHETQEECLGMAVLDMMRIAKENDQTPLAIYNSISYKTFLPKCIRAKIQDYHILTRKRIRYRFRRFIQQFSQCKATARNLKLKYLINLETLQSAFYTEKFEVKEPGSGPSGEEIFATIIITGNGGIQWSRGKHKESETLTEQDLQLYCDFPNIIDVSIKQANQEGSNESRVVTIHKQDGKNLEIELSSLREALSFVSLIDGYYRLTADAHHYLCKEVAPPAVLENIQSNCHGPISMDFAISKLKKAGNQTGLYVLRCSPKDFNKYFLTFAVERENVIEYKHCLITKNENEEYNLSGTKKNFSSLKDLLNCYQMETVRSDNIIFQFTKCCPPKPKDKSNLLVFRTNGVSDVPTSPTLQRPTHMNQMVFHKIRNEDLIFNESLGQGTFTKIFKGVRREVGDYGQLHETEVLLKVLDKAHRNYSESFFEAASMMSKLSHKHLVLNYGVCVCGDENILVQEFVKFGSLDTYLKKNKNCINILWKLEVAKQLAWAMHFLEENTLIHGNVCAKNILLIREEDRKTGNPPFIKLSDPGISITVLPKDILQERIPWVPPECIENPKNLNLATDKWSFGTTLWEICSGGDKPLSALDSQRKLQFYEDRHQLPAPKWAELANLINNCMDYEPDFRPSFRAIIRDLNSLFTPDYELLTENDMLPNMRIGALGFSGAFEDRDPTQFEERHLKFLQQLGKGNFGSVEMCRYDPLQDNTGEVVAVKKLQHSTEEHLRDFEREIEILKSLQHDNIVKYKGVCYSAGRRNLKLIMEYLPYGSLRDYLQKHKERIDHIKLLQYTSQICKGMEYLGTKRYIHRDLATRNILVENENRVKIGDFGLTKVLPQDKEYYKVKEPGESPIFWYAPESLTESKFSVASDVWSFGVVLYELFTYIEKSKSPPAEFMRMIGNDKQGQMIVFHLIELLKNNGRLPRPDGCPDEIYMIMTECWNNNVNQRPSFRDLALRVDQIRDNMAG
Sequence of TYK2 (P29597 whole entry): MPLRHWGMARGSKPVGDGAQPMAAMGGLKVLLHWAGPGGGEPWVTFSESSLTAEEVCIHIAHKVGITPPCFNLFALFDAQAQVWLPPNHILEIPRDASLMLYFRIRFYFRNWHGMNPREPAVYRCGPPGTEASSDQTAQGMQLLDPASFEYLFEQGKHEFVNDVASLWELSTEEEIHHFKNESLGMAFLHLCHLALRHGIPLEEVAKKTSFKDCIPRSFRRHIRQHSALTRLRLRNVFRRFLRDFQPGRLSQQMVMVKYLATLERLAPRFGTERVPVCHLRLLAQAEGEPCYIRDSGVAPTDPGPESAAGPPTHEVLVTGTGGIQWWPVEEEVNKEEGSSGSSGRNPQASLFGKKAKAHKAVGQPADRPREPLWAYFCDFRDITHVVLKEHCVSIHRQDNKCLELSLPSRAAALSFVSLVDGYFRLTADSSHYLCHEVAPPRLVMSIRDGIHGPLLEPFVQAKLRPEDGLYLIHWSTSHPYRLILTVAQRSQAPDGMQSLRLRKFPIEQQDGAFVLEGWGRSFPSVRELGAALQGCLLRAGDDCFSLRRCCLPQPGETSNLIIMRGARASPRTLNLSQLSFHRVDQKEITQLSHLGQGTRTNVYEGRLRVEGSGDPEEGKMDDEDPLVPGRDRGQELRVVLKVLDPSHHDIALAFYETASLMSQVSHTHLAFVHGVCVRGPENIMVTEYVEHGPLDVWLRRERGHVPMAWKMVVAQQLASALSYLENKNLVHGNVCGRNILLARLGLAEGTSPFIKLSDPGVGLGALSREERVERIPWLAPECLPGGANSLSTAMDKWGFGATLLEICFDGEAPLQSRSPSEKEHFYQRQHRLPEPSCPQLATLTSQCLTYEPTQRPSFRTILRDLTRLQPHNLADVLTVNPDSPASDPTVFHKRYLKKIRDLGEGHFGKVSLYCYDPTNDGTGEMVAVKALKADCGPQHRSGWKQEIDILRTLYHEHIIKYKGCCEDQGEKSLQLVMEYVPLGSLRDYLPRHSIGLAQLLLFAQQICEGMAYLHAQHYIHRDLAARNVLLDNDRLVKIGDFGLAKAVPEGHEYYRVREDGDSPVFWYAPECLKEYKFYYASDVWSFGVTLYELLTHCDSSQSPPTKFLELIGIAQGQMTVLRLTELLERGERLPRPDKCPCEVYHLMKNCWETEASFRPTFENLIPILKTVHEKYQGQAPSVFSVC
Sequence of JAK1 (P23458 whole entry): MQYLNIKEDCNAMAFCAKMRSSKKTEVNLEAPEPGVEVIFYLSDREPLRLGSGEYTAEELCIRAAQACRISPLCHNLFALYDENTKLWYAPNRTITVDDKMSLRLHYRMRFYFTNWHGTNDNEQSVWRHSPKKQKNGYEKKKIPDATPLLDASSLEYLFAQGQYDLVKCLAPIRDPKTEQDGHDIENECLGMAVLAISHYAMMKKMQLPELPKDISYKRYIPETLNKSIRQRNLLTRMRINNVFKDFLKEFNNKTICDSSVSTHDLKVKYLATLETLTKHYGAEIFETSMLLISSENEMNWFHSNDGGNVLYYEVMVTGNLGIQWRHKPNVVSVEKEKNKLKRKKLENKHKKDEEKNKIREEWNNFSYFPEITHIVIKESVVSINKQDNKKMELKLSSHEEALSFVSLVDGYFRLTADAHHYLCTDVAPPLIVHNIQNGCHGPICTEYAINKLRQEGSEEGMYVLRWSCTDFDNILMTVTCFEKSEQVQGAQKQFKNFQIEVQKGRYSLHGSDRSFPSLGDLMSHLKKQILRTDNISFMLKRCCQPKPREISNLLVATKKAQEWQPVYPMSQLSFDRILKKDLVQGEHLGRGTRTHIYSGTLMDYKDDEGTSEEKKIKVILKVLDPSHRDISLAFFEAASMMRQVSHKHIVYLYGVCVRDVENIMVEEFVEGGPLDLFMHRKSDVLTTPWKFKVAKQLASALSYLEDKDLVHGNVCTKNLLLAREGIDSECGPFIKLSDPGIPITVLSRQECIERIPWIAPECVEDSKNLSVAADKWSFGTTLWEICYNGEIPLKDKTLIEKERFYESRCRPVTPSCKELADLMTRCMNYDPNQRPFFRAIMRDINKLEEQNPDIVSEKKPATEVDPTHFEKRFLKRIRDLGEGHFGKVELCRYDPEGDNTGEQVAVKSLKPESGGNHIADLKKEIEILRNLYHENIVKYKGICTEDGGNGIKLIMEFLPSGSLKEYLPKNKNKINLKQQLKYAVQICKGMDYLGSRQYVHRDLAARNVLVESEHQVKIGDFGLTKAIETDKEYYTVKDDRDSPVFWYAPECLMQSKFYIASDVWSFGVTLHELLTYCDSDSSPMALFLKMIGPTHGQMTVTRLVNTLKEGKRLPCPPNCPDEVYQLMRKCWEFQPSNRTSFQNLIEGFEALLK

For `Nc1cc2ccc1-c1ccnc(n1)Nc1ccc(Oc3ccccc3F)c(c1)COCCCCNC2=O` [Example 119, 1^1-amino-4^4-(2-fluorophenoxy)-6-oxa-3,11-diaza-2(4,2)-pyrimidina-1(1,4),4(1,3)-dibenzenacyclo-dodecaphan-12-one], the IC50 is 1 to 10 µM at JAK2, 1 to 10 µM on JAK1, 0.011 to 0.1 µM on JAK3 and > 10 µM on TYK2.
Turning to `O=C1NCCCCOCc2cc(ccc2OCC2CCC(F)(F)C2)Nc2nccc(n2)-c2ccc1cc2[N+](=O)[O-]` (centres unmarked) [Example 120, 4^4-((3,3-difluorocyclopentyl)meth-oxy)-1^2-nitro-6-oxa-3,11-diaza-2(4,2)-pyrimidina-1(1,4),4(1,3)-di-benzenacyclododecaphan-12-one], the IC50 is 1 to 10 µM against JAK2, 1 to 10 µM at JAK1, 0.101 to 1 µM at JAK3 and > 10 µM on TYK2.
In the case of `Nc1cc2ccc1-c1ccnc(n1)Nc1ccc(OCC3CCC(F)(F)C3)c(c1)COCCCCNC2=O` (centres unmarked) [Example 121, 1^2-amino-4^4-((3,3-difluorocyclo-pentyl)methoxy)-6-oxa-3,11-diaza-2(4,2)-pyrimidina-1(1,4),4(1,3)-di-benzenacyclododecaphan-12-one], the IC50 on JAK2 was 0.101 to 1 µM; on JAK1, 1 to 10 µM; at JAK3, < 0.01 µM; on TYK2, 1 to 10 µM.
On to `O=C1NCCCCOCc2cc(ccc2OCC2Cc3ccccc3C2)Nc2nccc(n2)-c2ccc1cc2[N+](=O)[O-]` [Example 122, 4^4-((2,3-dihydro-1H-inden-2-yl)methoxy)-1^2-nitro-6-oxa-3,11-diaza-2(4,2)-pyrimidina-1(1,4),4(1,3)-dibenzenacyclododecaphan-12-one], for which the IC50 is > 10 µM against JAK2, > 10 µM at JAK1, 0.101 to 1 µM on JAK3 and > 10 µM at TYK2.
On to `Nc1cc2ccc1-c1ccnc(n1)Nc1ccc(OCC3Cc4ccccc4C3)c(c1)COCCCCNC2=O` [Example 123, 1^2-amino-4^4-((2,3-dihydro-1H-inden-2-yl)methoxy)-6-oxa-3,11-diaza-2(4,2)-pyrimidina-1(1,4),4(1,3)-dibenzenacyclododecaphan-12-one], for which the IC50 was 1 to 10 µM on JAK2, 1 to 10 µM at JAK1, 0.011 to 0.1 µM on JAK3 and 1 to 10 µM on TYK2.
For `O=C1NCCCCOCc2cc(ccc2OCC2CCOC2)Nc2nccc(n2)-c2ccc1cc2[N+](=O)[O-]` (centres unmarked) [Example 124, 1^2-nitro-4^4-((tetrahydrofuran-3-yl)methoxy)-6-oxa-3,11-diaza-2(4,2)-pyrimidina-1(1,4),4(1,3)-dibenzena-cyclododecaphan-12-one], the IC50 against JAK2 is 1 to 10 µM; at JAK1 it was 1 to 10 µM; on JAK3 it was 0.101 to 1 µM; on TYK2, > 10 µM.
As to `Nc1cc2ccc1-c1ccnc(n1)Nc1ccc(OCC3CCOC3)c(c1)COCCCCNC2=O` (centres unmarked) [Example 125, 1^2-amino-4^4-((tetrahydrofuran-3-yl)methoxy)-6-oxa-3,11-diaza-2(4,2)-pyrimidina-1(1,4),4(1,3)-dibenz-enacyclododecaphan-12-one], the IC50 is 0.101 to 1 µM at JAK2, 0.101 to 1 µM on JAK1, < 0.01 µM on JAK3 and 1 to 10 µM at TYK2.
Regarding `O=C1NCCCCOCc2cc(ccc2OCC2CC(F)(F)C2)Nc2nccc(n2)-c2ccc1cc2[N+](=O)[O-]` [Example 126, 4^4-((3,3-Difluorocyclobutyl)methoxy)-1^2-nitro-6-oxa-3,11-diaza-2(4,2)-pyrimidina-1(1,4),4(1,3)-di-benzenacyclododecaphan-12-one], the IC50 against JAK2 is 1 to 10 µM; on JAK1, > 10 µM; at JAK3, 0.101 to 1 µM; at TYK2, > 10 µM.
